According to US11453647B2, “Benzimidazole derivatives as adenosine receptor antagonists” (Merck Patent GmbH, priority 2017, dated 2022):

Tests used:
[1] = pharmacokinetic properties in mouse after single intravenous and oral administration; format: in vivo; conditions: PK data in mouse; for Feces iv: @0.2 (dose, unit not given); for clearance / half-life / Cmax / Vd: female, plasma, 0.2 mg/kg; for Cmax: dose-normalized to 1 mg/kg; for Vd: read-out: Vss
From the text: The objective of the study was to obtain information on the pharmacokinetic properties of the compounds of the present invention in female Wistar rats/mice following single intravenous and oral administration.
Female Wistar rats/mice (n=6) received either a single intravenous (bolus) injection or an oral administration (by gavage) of the tested compound.
The concentrations of the compounds in plasma, feces were quantified using an UPLC method with tandem mass spectrometric detection (LC-MS/MS) previously developed at the ‘Institute of Drug Metabolism and Pharmacokinetics’. The LC-MS/MS system consisted of a Waters Acquity UPLC coupled to an AB Sciex mass spectrometer API 5500 Q-trap. […] The detection of the compounds was performed using multiple reaction monitoring in the positive ionization mode. Plasma samples were spiked with internal standard (20 μl) and the analyte was extracted from the matrix using tertiary-butyl methyl ether (tBME). The organic phase was evaporated to dryness under a stream of nitrogen. The residue was dissolved in acetonitrile/0.1% formic acid for LC-MS/MS analysis. Feces samples were homogenized with 4-times their volume of an ethanol/water mixture (4:1, v/v). Aliquots of the aqueous-ethanolic extracts were spiked with internal standard, diluted with acetonitrile/water (1:1, v/v) and directly injected into the LC-MS/MS system.
Pharmacokinetic parameters Cmax and tmax were taken from the observed data. […] AUC values were calculated by non-compartmental analysis using the linear up/log down method. Numerical data for mean plasma concentrations and derived pharmacokinetic parameters were rounded to 3 significant digits for presentation.

[2] = tested on: mouse Pan T cells; assay: mouse Pan T cell IL-2 rescue from A2A agonist CGS-21680 (ELISA, 24 h); format: cell-based; conditions: for IC50: Mus musculus, T-cell
From the text: (§1) Adenosine (Ado) in tumor microenvironment can inhibit T cell activity by signaling through A2A receptors and suppress cytokine secretion by T cells. […] Potential A2A antagonists or A2A/A2B dual antagonists can rescue T cells from this inhibition. Herein, we describe the in vitro system we established using Pan T cells from mouse spleens to screen potential A2A antagonists or A2A/A2B dual antagonists for their activity. The method described involves the use of CD3/CD28 pre-coated beads to stimulate Pan T cells purified from mouse splenocytes, combined with the addition of A2A agonist along with potential A2A or A2A/A2B dual antagonists to evaluate potentiation of T cell cytokine production.
(§2) Briefly, mouse Pan T cells are purified from spleens of BALB/c mice using Pan T cell isolation kit Mouse II (MACS Miltenyi biotech Cat # Order no. 130-095-130) according to manufacturer's protocol. The purified T cells are seeded in Nunc™ 96-Well Polystyrene Round Bottom Microwell Plates in RPMI medium with 10% heat inactivated fetal bovine serum. The cells are rested at 37° C. for 1 h before activating with CD3/CD28 pre-coated beads (Dynabeads™ Mouse T-Activator CD3/CD28; Cat #11456D). After 30 min the cells are treated with varying doses of test antagonist(s). […] After 24 h incubation IL-2 levels in the supernatants and after 48 h incubation IFN-γ levels in the supernatants are measured by ELISAs according to manufacturer's protocol (R&D systems Cat # DY402 (IL-2); DY485 (IFN-γ)). Once the concentrations are calculated, the difference of cytokine concentration of DMSO control and agonist alone control is calculated (called A) and the percentage of rescue by each concentration of antagonist is calculated by using Microsoft Excel. These percentages of cytokine rescue in a dose dependent manner of antagonist is plotted in GraphPad Prism software and IC50 is calculated.

[3] = tested on: mouse Pan T cells; assay: mouse Pan T cell IFN-γ rescue from A2A agonist CGS-21680 (ELISA, 48 h); format: cell-based; conditions: for IC50: Mus musculus, T-cell
From the text: as §1, §2

[4] = target: T1, human A1 receptor (Homo sapiens, UniProt P30542); assay: functional cAMP (HTRF) assay, recombinant CHO cells expressing human A1 receptor, forskolin, agonist CPA; format: cell-based
T1 construct: expressed in transfected cells; host or cells: CHO
T1 sequence (P30542 1-326): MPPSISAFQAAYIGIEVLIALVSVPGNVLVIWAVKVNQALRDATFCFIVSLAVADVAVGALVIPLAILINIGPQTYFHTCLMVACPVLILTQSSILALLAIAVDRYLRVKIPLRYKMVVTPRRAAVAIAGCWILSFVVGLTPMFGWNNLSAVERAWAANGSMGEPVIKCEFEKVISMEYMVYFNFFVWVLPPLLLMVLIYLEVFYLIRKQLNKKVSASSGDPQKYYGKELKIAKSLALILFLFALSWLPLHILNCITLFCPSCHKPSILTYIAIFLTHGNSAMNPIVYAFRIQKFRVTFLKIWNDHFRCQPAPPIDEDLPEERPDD
Summary of the method: (§3)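 Recombinant CHO cells expressing A1 or A3 receptor (Gi-coupled) were stimulated with forskolin together with test compound and agonist (CPA for A1, IB-MECA for A3), incubated 30 min, then cellular cAMP was read by HTRF. Data were normalized to inhibitor control and DMSO neutral control, then curve-fitted.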

[5] = target: T2, A2B receptors (Homo sapiens, UniProt P29275); assay: functional cAMP (HTRF) assay, recombinant HEK293 cells expressing human A2B receptor, agonist NECA; format: cell-based; set-up: expressed in transfected cells; host or cells: HEK293
T2 sequence (P29275 1-332): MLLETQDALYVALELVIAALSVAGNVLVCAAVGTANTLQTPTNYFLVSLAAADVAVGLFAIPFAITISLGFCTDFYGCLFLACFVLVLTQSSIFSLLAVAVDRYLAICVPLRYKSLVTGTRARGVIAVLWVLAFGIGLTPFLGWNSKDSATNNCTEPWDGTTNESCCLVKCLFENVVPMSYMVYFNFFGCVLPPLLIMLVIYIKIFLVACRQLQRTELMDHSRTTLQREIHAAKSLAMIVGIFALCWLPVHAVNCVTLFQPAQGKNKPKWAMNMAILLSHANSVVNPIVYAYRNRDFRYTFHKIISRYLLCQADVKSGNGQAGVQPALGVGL

[6] = target: T3, human A2A receptor (Homo sapiens, UniProt P29274); assay: functional cAMP (HTRF) assay, recombinant HEK293 cells expressing human A2A receptor, agonist NECA; format: cell-based
T3 construct: expressed in transfected cells; host or cells: HEK293

[7] = target: T4, human A3 receptor (Homo sapiens, UniProt P0DMS8); assay: functional cAMP (HTRF) assay, recombinant CHO cells expressing human A3 receptor, forskolin, agonist IB-MECA; format: cell-based
T4 construct: expressed in transfected cells; host or cells: CHO
T4 sequence (P0DMS8 1-318): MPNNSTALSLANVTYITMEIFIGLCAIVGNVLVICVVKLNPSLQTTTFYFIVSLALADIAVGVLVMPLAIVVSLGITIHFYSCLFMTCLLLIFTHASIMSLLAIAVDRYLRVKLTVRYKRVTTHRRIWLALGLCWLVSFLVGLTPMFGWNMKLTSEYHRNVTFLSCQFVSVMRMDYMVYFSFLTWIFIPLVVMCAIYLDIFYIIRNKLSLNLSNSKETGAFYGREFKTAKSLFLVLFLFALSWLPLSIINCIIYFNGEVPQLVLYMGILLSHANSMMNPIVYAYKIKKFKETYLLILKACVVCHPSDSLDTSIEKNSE
Summary of the method: as §3

[8] = IC50 of cytokine rescue, CGS-21680 1 μM, CD3/CD28 beads

T3 sequence (P29274 whole entry): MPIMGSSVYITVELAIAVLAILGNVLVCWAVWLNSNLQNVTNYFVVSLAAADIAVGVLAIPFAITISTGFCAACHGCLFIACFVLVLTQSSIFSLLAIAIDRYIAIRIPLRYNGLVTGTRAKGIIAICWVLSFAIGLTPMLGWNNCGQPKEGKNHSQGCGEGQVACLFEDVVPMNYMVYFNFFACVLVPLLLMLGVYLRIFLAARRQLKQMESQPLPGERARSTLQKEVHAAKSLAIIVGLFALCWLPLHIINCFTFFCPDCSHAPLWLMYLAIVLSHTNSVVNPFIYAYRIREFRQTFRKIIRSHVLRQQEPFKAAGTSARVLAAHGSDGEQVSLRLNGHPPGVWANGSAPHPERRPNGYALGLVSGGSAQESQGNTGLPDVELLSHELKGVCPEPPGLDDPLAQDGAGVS

SMILES	Feces iv [1]	IC50 [2] [nM]	IC50 [4] [nM]	IC50 [5] [nM]	IC50 [6] [nM]	IC50 [7] [nM]	IC50 [3] [nM]	clearance [1] [mL/min/kg]	half-life [1] [min]	Cmax [1] [ng/mL]	Vd [1] [L/kg]	Mouse T-Cell IL-2 [2, 8]	Mouse IFN-γ [3, 8]
COc1ccc(N2CCOCC2)c2sc(NC(=O)N3CCC(C)(O)CC3)nc12 [Tozadenant, reference compound]	23@0.2%	–	–	–	–	–	–	–	–	–	–	NA (<50% rescue)	NA (<50% rescue)
COc1ccc(-c2cnn(C)c2)c2nc(NC(=O)N3CCC(C)(CO)CC3)[nH]c12 [compound 35, 4-Hydroxymethyl-4-methyl-piperidine-1-carboxylic acid [7-methoxy-4-(1-methyl-1H-pyrazol-4-yl)-1H-benzoimidazol-2-yl]-amide]	–	120	–	–	–	–	220	–	–	–	–	–	–
COc1ccc(-c2cnn(C)c2)c2nc(NC(=O)N3CCC4(CCCOC4)C3)[nH]c12 (stereo not drawn) [compound 67, N-[7-methoxy-4-(1-methyl-1H-pyrazol-4-yl)-1H-1,3-benzodiazol-2-yl]-7-oxa-2-azaspiro[4.5]decane-2-carboxamide]	–	–	–	–	–	–	800	–	–	–	–	–	–
COc1ccc(-c2cnn(C)c2)c2nc(NC(=O)c3ccnc(N4CC[C@@](C)(O)C4)c3)[nH]c12 [compound 107, 2-[(3R)-3-hydroxy-3-methylpyrrolidin-1-yl]-N-[7-methoxy-4-(1-methyl-1H-pyrazol-4-yl)-1H-1,3-benzodiazol-2-yl]pyridine-4-carboxamide]	34@0.2%	–	> 1000	< 1000	< 10	< 1000	–	31.7	37.3	718	1.54	–	–
COc1ccc(C2CCOCC2)c2nc(NC(=O)c3ccc(C(=O)N(C)C)cc3)[nH]c12 [compound 133, N4-[7-methoxy-4-(oxan-4-yl)-1H-1,3-benzodiazol-2-yl]-N1,N1-dimethylbenzene-1,4-dicarboxamide]	2.5@0.2%	–	> 1000	< 1000	< 10	> 1000	–	12.7	40.1	2640	0.402	–	–
COc1ccc(N2CCOCC2)c2nc(NC(=O)c3cnn(C)c3)[nH]c12 [compound 136, N-[7-methoxy-4-(morpholin-4-yl)-1H-1,3-benzodiazol-2-yl]-1-methyl-1H-pyrazole-4-carboxamide]	5.6@0.2%	–	> 1000	> 1000	< 10	> 1000	–	5.55	69	2100	0.522	–	–
COc1ccc(C2CCOCC2)c2nc(NC(=O)c3ccc(CN4CCCC4=O)cc3)[nH]c12 [compound 138, N-[7-methoxy-4-(oxan-4-yl)-1H-1,3-benzodiazol-2-yl]-4-[(2-oxopyrrolidin-1-yl)methyl]benzamide]	–	–	> 1000	< 1000	< 10	> 1000	–	28.5	32.3	1.9	1.06	–	–

Further lines, with some results ahead:

Feces iv [1]	IC50 [2] [nM]	IC50 [4] [nM]	IC50 [5] [nM]	IC50 [6] [nM]	IC50 [7] [nM]	IC50 [3] [nM]	clearance [1] [mL/min/kg]	half-life [1] [min]	Cmax [1] [ng/mL]	Vd [1] [L/kg]	SMILES	Mouse T-Cell IL-2 [2, 8]	Mouse IFN-γ [3, 8]
–	44	> 1000	< 100	< 10	> 1000	75	–	–	–	–	CCNCc1ccc(C(=O)Nc2nc3c(-c4ccccc4)ccc(OC)c3[nH]2)cc1 [compound 11, 4-Ethylaminomethyl-N-(7-methoxy-4-phenyl-1H-benzoimidazol-2-yl)-benzamide]	–	–
27@0.2%	–	< 1000	< 1000	< 10	< 1000	–	11.4	42.6	1820	0.568	COc1ccc(-c2ccccc2)c2nc(NC(=O)N3CCC(C)(O)CC3)[nH]c12 [compound 12, 4-Hydroxy-4-methyl-piperidine-1-carboxylic acid (7-methoxy-4-phenyl-1H-benzoimidazol-2-yl)-amide]	–	–
–	1110	< 1000	< 10	< 10	< 100	–	–	–	–	–	COc1ccc(-c2ccccc2)c2nc(NC(=O)c3ccc(Cn4ccnc4)cc3)[nH]c12 [compound 15, 4-Imidazol-1-ylmethyl-N-(7-methoxy-4-phenyl-1H-benzoimidazol-2-yl)-benzamide]	–	–
–	40	> 1000	< 100	< 10	< 1000	40	–	–	–	–	COc1ccc(-c2cnn(C)c2)c2nc(NC(=O)c3ccc(Cn4ccnc4)cc3)[nH]c12 [compound 71, 4-[(1H-imidazol-1-yl)methyl]-N-[7-methoxy-4-(1-methyl-1H-pyrazol-4-yl)-1H-1,3-benzodiazol-2-yl]benzamide]	–	–
–	–	> 1000	< 1000	< 10	< 1000	1000	–	–	–	–	COc1ccc(-c2cnn(C)c2)c2nc(NC(=O)c3ccc(OC(F)(F)F)cc3)[nH]c12 [compound 94, N-[7-methoxy-4-(1-methyl-1H-pyrazol-4-yl)-1H-1,3-benzodiazol-2-yl]-4-(trifluoromethoxy)benzamide]	–	–
29@0.2%	–	> 1000	< 100	< 10	> 1000	–	12.5	58	1050	1.01	COc1ccc(C2CCOCC2)c2nc(NC(=O)c3ccc(Cn4ccnc4)cc3)[nH]c12 [compound 97, 4-[(1H-imidazol-1-yl)methyl]-N-[7-methoxy-4-(oxan-4-yl)-1H-1,3-benzodiazol-2-yl]benzamide]	–	–
